From ChEMBL document CHEMBL5154873, “Selective degradation of PARP2 by PROTACs via recruiting DCAF16 for triple-negative breast cancer” (Eur J Med Chem, 2022)
pIC50: −log10 of the molar value. Calls of active or inactive are those of the source. No cut-off for these calls is given here.

How the values were obtained:
[1] = target: T1, DDB1- and CUL4-associated factor 16/Poly [ADP-ribose] polymerase 2 (Homo sapiens, UniProt Q9UGN5+Q9NXF7); test: Protac activity at DCAF16 E3 ligase/PARP2 in human MDA-MB-231 cells assessed as induction of PARP2 degradation at 0.5 uM measured after 8 hrs by Western blot analysis; format: cell-based
Target sequence in this assay (Q9NXF7 whole entry, looked up): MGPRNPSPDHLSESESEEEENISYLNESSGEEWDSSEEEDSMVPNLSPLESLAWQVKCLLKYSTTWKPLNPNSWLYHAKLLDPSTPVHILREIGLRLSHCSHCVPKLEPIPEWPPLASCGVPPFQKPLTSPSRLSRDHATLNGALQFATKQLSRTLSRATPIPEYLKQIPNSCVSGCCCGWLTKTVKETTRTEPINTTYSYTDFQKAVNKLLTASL
Target sequence in this assay (Q9UGN5 whole entry, looked up): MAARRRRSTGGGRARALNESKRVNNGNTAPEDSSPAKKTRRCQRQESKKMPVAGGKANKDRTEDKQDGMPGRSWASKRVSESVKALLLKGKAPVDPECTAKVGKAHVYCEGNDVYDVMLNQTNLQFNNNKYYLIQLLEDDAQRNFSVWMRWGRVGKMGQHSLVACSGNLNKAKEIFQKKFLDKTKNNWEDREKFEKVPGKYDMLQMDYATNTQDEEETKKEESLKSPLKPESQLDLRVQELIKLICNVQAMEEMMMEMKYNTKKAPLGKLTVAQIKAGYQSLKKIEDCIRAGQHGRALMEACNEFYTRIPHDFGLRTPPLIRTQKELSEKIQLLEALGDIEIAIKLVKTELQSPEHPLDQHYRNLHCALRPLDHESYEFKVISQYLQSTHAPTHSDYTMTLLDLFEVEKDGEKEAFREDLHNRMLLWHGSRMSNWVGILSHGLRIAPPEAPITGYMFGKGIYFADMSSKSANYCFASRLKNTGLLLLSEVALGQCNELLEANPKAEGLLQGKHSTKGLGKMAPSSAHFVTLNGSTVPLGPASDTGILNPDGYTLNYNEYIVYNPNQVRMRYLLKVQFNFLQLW

MDA-MB-231 [2] = test: Inhibition of colony formation in human MDA-MB-231 cells measured after 14 days by crystal violet staining based analysis; format: functional, cell-based; conditions: dose 0.312-5 µM, time 14.0 day, DDE = dose-dependent effect
MDA-MB-468 [3] = test: Potency index, ratio of IC50 of Olaparib to IC50 of test compound antiproliferative activity against human PTEN -/- MDA-MB-468 cells assessed as reduction in cell viability incubated for 5 to 10 days by MTT assay; format: functional; conditions: time 5-10 day
MDA-MB-231 [4] = test: Antitumor activity against human MDA-MB-231 cells xenografted BALB/c mouse assessed as reduction in tumor weight at 25 mg/kg, ip measured after 21 days; format: functional, organism-based; conditions: time 21.0 day
CAPAN-1 = test: Antiproliferative activity against human BRCA2 -/- CAPAN-1 cells assessed as reduction in cell viability incubated for 5 to 10 days by MTT assay; format: functional, cell-based
[5] = Toxicity in BALB/c mouse xenografted with MDA-MB-231 cells assessed as mortality at 12.5 to 25 mg/kg, ip measured after 21 days; format: organism-based; conditions: in vivo, 504 h, dose 12.5-25 mg/kg, time 21 day
[6] = Toxicity in BALB/c mouse xenografted with MDA-MB-231 cells assessed as change in body weight at 12.5 to 25 mg/kg, ip measured after 21 days; format: organism-based; conditions: in vivo, 504 h, dose 12.5-25 mg/kg, time 21 day
MDA-MB-468 [7] = test: Antiproliferative activity against human PTEN -/- MDA-MB-468 cells assessed as reduction in cell viability incubated for 5 to 10 days by MTT assay; format: functional, cell-based
MDA-MB-436 [8] = test: Induction of cell cycle arrest in human (BRAC1-/-) MDA-MB-436 cells assessed as accumulation at G2/M phase measured after 48 hrs by flow cytometry analysis; format: functional, cell-based; conditions: dose 0.312-2.5 µM, DDE = dose-dependent effect
HepG2 = test: Antiproliferative activity against human HepG2 cells over expressing DCAF16 assessed as reduction in cell viability incubated for 5 to 10 days by MTT assay; format: functional, cell-based; conditions: time 5-10 day
NCI-H3122 = test: Antiproliferative activity against human H3122 cells over expressing DCAF16 assessed as reduction in cell viability incubated for 5 to 10 days by MTT assay; format: functional, cell-based; conditions: time 5-10 day
[9] = Toxicity in BALB/c mouse xenografted with MDA-MB-231 cells assessed as pathological changes in spleen at 25 mg/kg, ip measured after 21 days by hematoxylin and eosin staining based assay; format: organism-based; conditions: in vivo, 504 h, time 21 day
[10] = target: T1, DDB1- and CUL4-associated factor 16/Poly [ADP-ribose] polymerase 2; test: Protac activity at DCAF16 E3 ligase/PARP2 in human MDA-MB-231 cells assessed as induction of PARP2 degradation in nucleus at 0.5 uM measured after 24 hrs by DAPI staining based immunofluorescence microscopy; format: cell-based
Target sequence in this assay (Q9NXF7 whole entry, looked up): as the sequence (Q9NXF7 whole entry, looked up) above
Target sequence in this assay (Q9UGN5 whole entry, looked up): as the sequence (Q9UGN5 whole entry, looked up) above

[11] = Toxicity in BALB/c mouse xenografted with MDA-MB-231 cells assessed as pathological changes in lung at 25 mg/kg, ip measured after 21 days by hematoxylin and eosin staining based assay; format: organism-based; conditions: in vivo, 504 h, time 21 day
[12] = target: Poly [ADP-ribose] polymerase 1 (Homo sapiens, UniProt P09874); test: Inhibition of PARP1 (unknown origin)
Sequence of Poly [ADP-ribose] polymerase 1 (P09874 whole entry): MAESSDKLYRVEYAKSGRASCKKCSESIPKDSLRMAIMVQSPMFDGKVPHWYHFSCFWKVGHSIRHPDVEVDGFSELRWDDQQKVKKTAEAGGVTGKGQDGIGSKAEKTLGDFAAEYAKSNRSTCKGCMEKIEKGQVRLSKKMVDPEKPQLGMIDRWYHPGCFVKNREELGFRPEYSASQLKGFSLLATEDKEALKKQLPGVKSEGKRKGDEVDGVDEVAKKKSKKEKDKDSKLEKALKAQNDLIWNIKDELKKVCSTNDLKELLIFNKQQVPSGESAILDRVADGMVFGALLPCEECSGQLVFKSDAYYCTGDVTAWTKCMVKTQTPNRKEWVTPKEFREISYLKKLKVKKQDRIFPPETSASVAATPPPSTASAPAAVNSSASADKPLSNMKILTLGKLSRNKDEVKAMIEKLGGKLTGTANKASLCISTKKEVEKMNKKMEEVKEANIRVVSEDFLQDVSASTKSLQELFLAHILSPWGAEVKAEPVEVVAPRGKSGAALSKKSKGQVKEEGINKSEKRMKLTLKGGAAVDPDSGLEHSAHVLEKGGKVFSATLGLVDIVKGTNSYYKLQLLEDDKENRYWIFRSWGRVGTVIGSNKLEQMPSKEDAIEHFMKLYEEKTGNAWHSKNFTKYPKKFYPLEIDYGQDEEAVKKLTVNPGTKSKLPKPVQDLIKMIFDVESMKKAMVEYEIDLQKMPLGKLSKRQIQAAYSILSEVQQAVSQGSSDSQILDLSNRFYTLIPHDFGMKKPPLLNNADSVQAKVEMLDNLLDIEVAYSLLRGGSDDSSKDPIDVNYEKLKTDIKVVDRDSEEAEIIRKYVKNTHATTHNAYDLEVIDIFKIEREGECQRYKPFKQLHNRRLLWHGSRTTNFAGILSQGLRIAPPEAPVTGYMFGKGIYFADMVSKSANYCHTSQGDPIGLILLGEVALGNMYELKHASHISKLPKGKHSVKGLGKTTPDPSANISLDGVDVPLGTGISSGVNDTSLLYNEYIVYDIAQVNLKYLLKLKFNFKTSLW

HeLa = test: Antiproliferative activity against human HeLa cells over expressing DCAF16 assessed as reduction in cell viability incubated for 5 to 10 days by MTT assay; format: functional, cell-based; conditions: time 5-10 day
SK-OV-3 = test: Antiproliferative activity against human SK-OV-3 cells over expressing DCAF16 assessed as reduction in cell viability incubated for 5 to 10 days by MTT assay; format: functional, cell-based; conditions: time 5-10 day
[13] = Toxicity in BALB/c mouse xenografted with MDA-MB-231 cells assessed as change in body weight at 100 mg/kg, IG measured after 21 days; format: organism-based; conditions: in vivo, po, 504 h, time 21 day
[14] = target: Poly [ADP-ribose] polymerase 2 (Homo sapiens, UniProt Q9UGN5); test: Inhibition of PARP2 (unknown origin)
Sequence of Poly [ADP-ribose] polymerase 2 (Q9UGN5 whole entry): as the sequence (Q9UGN5 whole entry, looked up) above

[15] = target: T1, DDB1- and CUL4-associated factor 16/Poly [ADP-ribose] polymerase 2; test: Protac activity at DCAF16 E3 ligase/PARP2 in human MDA-MB-231 cells assessed as induction of PARP2 degradation measured after 24 hrs by Western blot analysis; format: cell-based
Target sequence in this assay (Q9UGN5 whole entry): as the sequence (Q9UGN5 whole entry, looked up) above
Target sequence in this assay (Q9NXF7 whole entry): as the sequence (Q9NXF7 whole entry, looked up) above

[16] = Toxicity in BALB/c mouse xenografted with MDA-MB-231 cells assessed as pathological changes in kidney at 25 mg/kg, ip measured after 21 days by hematoxylin and eosin staining based assay; format: organism-based; conditions: in vivo, 504 h, time 21 day
MDA-MB-231 [17] = test: In vivo antitumor activity against human MDA-MB-231 cells xenografted BALB/c mouse assessed as tumor growth inhibition at 12.5 mg/kg, ip measured after 21 days; format: functional; conditions: MDA-MB-231, 504 h, time 21 day, read-out: TGI
MDA-MB-231 [18] = test: In vivo antitumor activity against human MDA-MB-231 cells xenografted BALB/c mouse assessed as tumor growth inhibition at 25 mg/kg, ip measured after 21 days; format: functional; conditions: MDA-MB-231, 504 h, time 21 day, read-out: TGI
[19] = Toxicity in BALB/c mouse xenografted with MDA-MB-231 cells assessed as pathological changes in liver at 25 mg/kg, ip measured after 21 days by hematoxylin and eosin staining based assay; format: organism-based; conditions: in vivo, 504 h, time 21 day
MDA-MB-231 [20] = test: Potency index, ratio of IC50 of Olaparib to IC50 of test compound antiproliferative activity against wild type human MDA-MB-231 cells assessed as reduction in cell viability incubated for 5 to 10 days by MTT assay; format: functional; conditions: time 5-10 day
L02 = test: Cytotoxicity against human L02 cells; format: toxicity, cell-based
[21] = Toxicity in BALB/c mouse xenografted with MDA-MB-231 cells assessed as pathological changes in heart at 25 mg/kg, ip measured after 21 days by hematoxylin and eosin staining based assay; format: organism-based; conditions: in vivo, 504 h, time 21 day
MDA-MB-231 [22] = test: In vivo antitumor activity against human MDA-MB-231 cells xenografted BALB/c mouse assessed as tumor growth inhibition at 100 mg/kg, IG measured after 21 days; format: functional; conditions: MDA-MB-231, po, 504 h, time 21 day, read-out: TGI
[23] = Toxicity in BALB/c mouse xenografted with MDA-MB-231 cells assessed as morbidity at 12.5 to 25 mg/kg, ip measured after 21 days; format: organism-based; conditions: in vivo, 504 h, dose 12.5-25 mg/kg, time 21 day
[24] = target: T1, DDB1- and CUL4-associated factor 16/Poly [ADP-ribose] polymerase 2; test: Protac activity at DCAF16 E3 ligase/PARP2 in human MDA-MB-231 cells assessed as maximum degradation of PARP2 measured after 24 hrs by Western blot analysis relative to control; format: cell-based
Target sequence in this assay (Q9NXF7 whole entry, looked up): as above
Target sequence in this assay (Q9UGN5 whole entry, looked up): as the sequence (Q9UGN5 whole entry, looked up) above

[25] = Toxicity in BALB/c mouse xenografted with MDA-MB-231 cells assessed as morbidity at 100 mg/kg, IG measured after 21 days; format: organism-based; conditions: in vivo, po, 504 h, time 21 day
[26] = target: T1, DDB1- and CUL4-associated factor 16/Poly [ADP-ribose] polymerase 2; test: Protac activity at DCAF16 E3 ligase/PARP2 in human MDA-MB-231 cells assessed as induction of PARP2 degradation at 1 uM measured after 24 hrs by Western blot analysis; format: cell-based
Target sequence in this assay (Q9NXF7 whole entry, looked up): as the sequence (Q9NXF7 whole entry, looked up) above
Target sequence in this assay (Q9UGN5 whole entry, looked up): as the sequence (Q9UGN5 whole entry, looked up) above

MV4-11 = test: Antiproliferative activity against human MV4-11 cells over expressing DCAF16 assessed as reduction in cell viability incubated for 5 to 10 days by MTT assay; format: functional, cell-based; conditions: time 5-10 day
[27] = Toxicity in BALB/c mouse xenografted with MDA-MB-231 cells assessed as mortality at 100 mg/kg, IG measured after 21 days; format: organism-based; conditions: in vivo, po, 504 h, time 21 day
SW-620 = test: Antiproliferative activity against human SW-620 cells over expressing DCAF16 assessed as reduction in cell viability incubated for 5 to 10 days by MTT assay; format: functional, cell-based; conditions: time 5-10 day
MDA-MB-436 [28] = test: Antiproliferative activity against human BRCA1 -/- MDA-MB-436 cells assessed as reduction in cell viability incubated for 5 to 10 days by MTT assay; format: functional, cell-based
MDA-MB-231 [29] = test: Induction of cell cycle arrest in human MDA-MB-231 cells assessed as accumulation at G2/M phase measured after 24 hrs by flow cytometry analysis; format: functional, cell-based; conditions: dose 0.156-1.25 µM, DDE = dose-dependent effect
NCI-H2228 = test: Antiproliferative activity against human H2228 cells over expressing DCAF16 assessed as reduction in cell viability incubated for 5 to 10 days by MTT assay; format: functional, cell-based; conditions: time 5-10 day
MDA-MB-231 [30] = test: Antiproliferative activity against wild type human MDA-MB-231 cells assessed as reduction in cell viability incubated for 5 to 10 days by MTT assay; format: functional, cell-based
MDA-MB-231 [31] = test: Induction of apoptosis in human wild type MDA-MB-231 cells at 1.25 uM measured after 48 hrs by Annexin V-FITC/PI staining based flow cytometry method; format: functional
[32] = target: T1, DDB1- and CUL4-associated factor 16/Poly [ADP-ribose] polymerase 2; test: Protac activity at DCAF16 E3 ligase/PARP2 in human MDA-MB-231 cells assessed as induction of PARP2 degradation at 0.5 uM preincubated for 2 hrs followed by compound washout measured after 48 hrs by Western blot analysis; format: cell-based
Target sequence in this assay (Q9NXF7 whole entry, looked up): as the sequence (Q9NXF7 whole entry, looked up) above
Target sequence in this assay (Q9UGN5 whole entry, looked up): as the sequence (Q9UGN5 whole entry, looked up) above

SMILES: O=C(COc1ccc2c(c1)CCCN2C(=O)CCl)NCCCCCCCCCC(=O)N1CCN(C(=O)c2cc(Cc3n[nH]c(=O)c4ccccc34)ccc2F)CC1
- Activity [1]: Active
- inhibition (MDA-MB-231 [2]): Dde
- Ratio IC50 (MDA-MB-468 [3]): 6
- Activity (MDA-MB-231 [4]): Active
- pIC50 (CAPAN-1): 7.21
- Activity [5]: Non-Toxic
- Activity [6]: Non-Toxic
- pIC50 (MDA-MB-468 [7]): 6.16
- Activity (MDA-MB-436 [8]): Dde
- inhibition (HepG2): Active
- inhibition (NCI-H3122): Active
- Activity [9]: Non-Toxic
- Activity [10]: Active
- Activity [11]: Non-Toxic
- pIC50 [12]: 8.56
- inhibition (HeLa): Active
- inhibition (SK-OV-3): Active
- Activity [13]: Non-Toxic
- pIC50 [14]: 9.49
- DC50 [15]: 2000 nM
- Activity [16]: Non-Toxic
- inhibition in vivo at 12.5 mg/kg (MDA-MB-231 [17]): 82.9%
- inhibition in vivo at 25 mg/kg (MDA-MB-231 [18]): 98.3%
- Activity [19]: Non-Toxic
- Ratio IC50 (MDA-MB-231 [20]): 6
- Activity (L02): Non-Toxic
- Activity [21]: Non-Toxic
- inhibition in vivo at 100 mg/kg (MDA-MB-231 [22]): 63.5%
- Activity [23]: Non-Toxic
- Activity [24]: > 92%
- Activity [25]: Non-Toxic
- Activity [26]: Active
- inhibition (MV4-11): Active
- Activity [27]: Non-Toxic
- inhibition (SW-620): Active
- pIC50 (MDA-MB-436 [28]): 7.59
- Activity (MDA-MB-231 [29]): Dde
- inhibition (NCI-H2228): Active
- pIC50 (MDA-MB-231 [30]): 6.28
- Activity (MDA-MB-231 [31]): 20%
- Activity [32]: Active
